The results in this text go back to article PMC8213057, “Targeting ALK2: An Open Science Approach to Developing Therapeutics for the Treatment of Diffuse Intrinsic Pontine Glioma” (Journal of Medicinal Chemistry, 2020).

The target of one assay is ALK (Homo sapiens, UniProt Q9UM73). The note with it: 1 μM; Run 1, Run 2.
Another assay concerns the target CDK2/cyclin E2 (Homo sapiens, UniProt P24941). To be noted: 1 μM; Run 1, Run 2.
A further assay has as its target T1, ULK1 (Homo sapiens, UniProt O75385).
T1 sequence (O75385 1-1050): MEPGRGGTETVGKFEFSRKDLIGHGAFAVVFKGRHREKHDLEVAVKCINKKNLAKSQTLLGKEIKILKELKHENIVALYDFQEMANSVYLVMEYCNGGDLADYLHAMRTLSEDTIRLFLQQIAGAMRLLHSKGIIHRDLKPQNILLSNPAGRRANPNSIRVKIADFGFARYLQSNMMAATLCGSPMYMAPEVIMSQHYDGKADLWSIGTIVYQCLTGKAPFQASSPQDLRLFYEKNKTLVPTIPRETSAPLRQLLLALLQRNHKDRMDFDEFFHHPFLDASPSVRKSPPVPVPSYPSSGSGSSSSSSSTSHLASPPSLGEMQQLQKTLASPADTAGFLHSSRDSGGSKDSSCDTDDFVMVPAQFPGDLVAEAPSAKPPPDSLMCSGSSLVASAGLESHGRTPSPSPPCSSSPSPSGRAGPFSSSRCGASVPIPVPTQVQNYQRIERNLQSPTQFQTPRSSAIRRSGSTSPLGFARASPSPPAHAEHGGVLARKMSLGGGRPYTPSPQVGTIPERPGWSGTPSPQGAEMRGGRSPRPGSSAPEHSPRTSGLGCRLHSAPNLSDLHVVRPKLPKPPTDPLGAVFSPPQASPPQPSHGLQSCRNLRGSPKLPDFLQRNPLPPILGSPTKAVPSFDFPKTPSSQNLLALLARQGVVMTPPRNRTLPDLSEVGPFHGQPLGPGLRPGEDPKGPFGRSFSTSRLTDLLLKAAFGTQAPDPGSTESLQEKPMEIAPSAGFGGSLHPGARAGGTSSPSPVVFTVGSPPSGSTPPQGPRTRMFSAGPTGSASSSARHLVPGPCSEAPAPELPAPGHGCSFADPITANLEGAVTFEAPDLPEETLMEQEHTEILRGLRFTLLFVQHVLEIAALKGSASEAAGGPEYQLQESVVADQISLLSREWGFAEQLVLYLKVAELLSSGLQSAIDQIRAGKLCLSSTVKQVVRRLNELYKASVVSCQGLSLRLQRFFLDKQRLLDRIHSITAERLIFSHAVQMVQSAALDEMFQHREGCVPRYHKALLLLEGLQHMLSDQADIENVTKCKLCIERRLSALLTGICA
To be noted: 1 μM; Run 1, Run 2.

The next assay concerns the target T2, CDK9/cyclin K (Homo sapiens, UniProt P50750).
T2 construct: purchased Reaction Biology Corporation
The assay is described as follows: 375-member kinase panel. The note with it: Run 1, Run 2; for % enzyme activity: 1 μM; for remaining activity at 1 µM: read-out: % enzyme activity, 1 μM. It counts as biochemical.

A further assay deals with ZIPK/DAPK3 (Homo sapiens, UniProt O43293). To be noted: 1 μM; Run 1, Run 2.
The target in a further assay is T3, MKK6 (Homo sapiens, UniProt P52564).
T3 sequence (P52564 1-334): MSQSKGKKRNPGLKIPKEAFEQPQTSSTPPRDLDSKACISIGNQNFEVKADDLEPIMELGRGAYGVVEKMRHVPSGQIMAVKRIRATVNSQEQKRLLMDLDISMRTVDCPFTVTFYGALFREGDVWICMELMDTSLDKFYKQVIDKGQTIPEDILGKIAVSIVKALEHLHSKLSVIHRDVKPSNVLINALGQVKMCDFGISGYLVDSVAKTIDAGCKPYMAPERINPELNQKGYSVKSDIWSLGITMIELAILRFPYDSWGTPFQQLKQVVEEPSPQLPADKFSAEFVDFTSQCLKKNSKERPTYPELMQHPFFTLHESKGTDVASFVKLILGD
The assay is described as follows: biochemical. To be noted: read-out: % enzyme activity, 1 μM; Run 1, Run 2.

Another assay has as its target PKCa (Homo sapiens, UniProt P17252). Nature of the assay: biochemical. The note with it: read-out: % enzyme activity, 1 μM; Run 1, Run 2.
Another assay addresses PLK3 (Homo sapiens, UniProt Q9H4B4). Nature of the assay: biochemical. The note with it: read-out: % enzyme activity, 1 μM; Run 1, Run 2.
A further assay deals with FLT1/VEGFR1 (Homo sapiens, UniProt P17948). The note with it: 1 μM; Run 1, Run 2.
For another assay, the target named is T4, EPHB2 (Homo sapiens, UniProt P29323).
T4 sequence (P29323 19-1055): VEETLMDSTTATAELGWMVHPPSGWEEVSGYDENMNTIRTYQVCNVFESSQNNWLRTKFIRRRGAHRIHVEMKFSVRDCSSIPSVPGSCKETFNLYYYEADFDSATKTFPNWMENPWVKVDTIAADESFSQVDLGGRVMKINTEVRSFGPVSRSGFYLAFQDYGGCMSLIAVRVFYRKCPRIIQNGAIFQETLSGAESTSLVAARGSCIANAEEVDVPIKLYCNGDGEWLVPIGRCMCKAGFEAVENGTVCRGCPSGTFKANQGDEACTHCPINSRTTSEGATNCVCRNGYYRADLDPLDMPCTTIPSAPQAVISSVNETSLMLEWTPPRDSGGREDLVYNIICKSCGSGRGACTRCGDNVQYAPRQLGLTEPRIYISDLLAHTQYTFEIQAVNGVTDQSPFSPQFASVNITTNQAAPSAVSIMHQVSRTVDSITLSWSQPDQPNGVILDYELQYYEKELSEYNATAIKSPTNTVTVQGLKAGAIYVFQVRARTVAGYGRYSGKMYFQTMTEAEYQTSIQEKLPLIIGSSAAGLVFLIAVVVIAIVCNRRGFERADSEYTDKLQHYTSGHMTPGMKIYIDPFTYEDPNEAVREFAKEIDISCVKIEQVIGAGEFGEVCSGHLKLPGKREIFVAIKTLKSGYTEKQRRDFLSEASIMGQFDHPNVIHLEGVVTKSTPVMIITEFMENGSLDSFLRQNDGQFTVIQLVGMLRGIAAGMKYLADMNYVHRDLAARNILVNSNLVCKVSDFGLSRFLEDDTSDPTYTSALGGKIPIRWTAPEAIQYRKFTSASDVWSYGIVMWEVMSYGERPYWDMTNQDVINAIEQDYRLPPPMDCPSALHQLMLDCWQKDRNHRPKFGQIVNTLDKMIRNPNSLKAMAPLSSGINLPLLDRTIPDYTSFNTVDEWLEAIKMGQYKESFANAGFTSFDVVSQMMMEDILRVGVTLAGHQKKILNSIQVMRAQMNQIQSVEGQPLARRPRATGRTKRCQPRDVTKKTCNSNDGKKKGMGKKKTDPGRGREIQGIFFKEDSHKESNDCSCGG
To be noted: 1 μM; Run 1, Run 2.

T2 sequence (P50750 whole entry): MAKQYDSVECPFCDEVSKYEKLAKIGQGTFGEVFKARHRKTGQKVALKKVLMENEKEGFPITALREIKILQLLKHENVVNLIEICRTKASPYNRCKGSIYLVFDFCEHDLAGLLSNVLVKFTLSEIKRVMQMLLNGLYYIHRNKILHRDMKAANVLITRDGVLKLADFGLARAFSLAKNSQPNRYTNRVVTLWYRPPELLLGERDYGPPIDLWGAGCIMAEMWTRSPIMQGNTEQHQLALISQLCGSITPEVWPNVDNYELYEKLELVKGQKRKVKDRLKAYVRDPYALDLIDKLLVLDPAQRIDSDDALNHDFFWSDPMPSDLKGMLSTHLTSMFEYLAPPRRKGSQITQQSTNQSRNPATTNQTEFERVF
T2 sequence (O75909 whole entry partner): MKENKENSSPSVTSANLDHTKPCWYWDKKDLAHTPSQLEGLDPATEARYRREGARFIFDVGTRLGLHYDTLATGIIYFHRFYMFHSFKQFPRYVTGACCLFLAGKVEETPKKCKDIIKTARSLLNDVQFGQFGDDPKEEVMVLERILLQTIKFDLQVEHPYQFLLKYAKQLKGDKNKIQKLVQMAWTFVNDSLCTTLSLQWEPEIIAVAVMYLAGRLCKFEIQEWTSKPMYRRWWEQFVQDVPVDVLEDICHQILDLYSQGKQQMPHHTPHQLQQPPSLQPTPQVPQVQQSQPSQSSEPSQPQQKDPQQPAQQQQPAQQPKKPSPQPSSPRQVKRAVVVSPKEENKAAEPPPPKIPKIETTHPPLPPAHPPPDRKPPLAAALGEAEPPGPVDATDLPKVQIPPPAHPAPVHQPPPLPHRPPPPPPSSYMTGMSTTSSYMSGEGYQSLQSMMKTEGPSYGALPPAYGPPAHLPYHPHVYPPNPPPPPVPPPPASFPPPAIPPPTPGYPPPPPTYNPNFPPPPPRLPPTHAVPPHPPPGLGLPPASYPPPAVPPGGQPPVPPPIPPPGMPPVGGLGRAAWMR
Chain of FLT1/VEGFR1 (P17948 27-1338): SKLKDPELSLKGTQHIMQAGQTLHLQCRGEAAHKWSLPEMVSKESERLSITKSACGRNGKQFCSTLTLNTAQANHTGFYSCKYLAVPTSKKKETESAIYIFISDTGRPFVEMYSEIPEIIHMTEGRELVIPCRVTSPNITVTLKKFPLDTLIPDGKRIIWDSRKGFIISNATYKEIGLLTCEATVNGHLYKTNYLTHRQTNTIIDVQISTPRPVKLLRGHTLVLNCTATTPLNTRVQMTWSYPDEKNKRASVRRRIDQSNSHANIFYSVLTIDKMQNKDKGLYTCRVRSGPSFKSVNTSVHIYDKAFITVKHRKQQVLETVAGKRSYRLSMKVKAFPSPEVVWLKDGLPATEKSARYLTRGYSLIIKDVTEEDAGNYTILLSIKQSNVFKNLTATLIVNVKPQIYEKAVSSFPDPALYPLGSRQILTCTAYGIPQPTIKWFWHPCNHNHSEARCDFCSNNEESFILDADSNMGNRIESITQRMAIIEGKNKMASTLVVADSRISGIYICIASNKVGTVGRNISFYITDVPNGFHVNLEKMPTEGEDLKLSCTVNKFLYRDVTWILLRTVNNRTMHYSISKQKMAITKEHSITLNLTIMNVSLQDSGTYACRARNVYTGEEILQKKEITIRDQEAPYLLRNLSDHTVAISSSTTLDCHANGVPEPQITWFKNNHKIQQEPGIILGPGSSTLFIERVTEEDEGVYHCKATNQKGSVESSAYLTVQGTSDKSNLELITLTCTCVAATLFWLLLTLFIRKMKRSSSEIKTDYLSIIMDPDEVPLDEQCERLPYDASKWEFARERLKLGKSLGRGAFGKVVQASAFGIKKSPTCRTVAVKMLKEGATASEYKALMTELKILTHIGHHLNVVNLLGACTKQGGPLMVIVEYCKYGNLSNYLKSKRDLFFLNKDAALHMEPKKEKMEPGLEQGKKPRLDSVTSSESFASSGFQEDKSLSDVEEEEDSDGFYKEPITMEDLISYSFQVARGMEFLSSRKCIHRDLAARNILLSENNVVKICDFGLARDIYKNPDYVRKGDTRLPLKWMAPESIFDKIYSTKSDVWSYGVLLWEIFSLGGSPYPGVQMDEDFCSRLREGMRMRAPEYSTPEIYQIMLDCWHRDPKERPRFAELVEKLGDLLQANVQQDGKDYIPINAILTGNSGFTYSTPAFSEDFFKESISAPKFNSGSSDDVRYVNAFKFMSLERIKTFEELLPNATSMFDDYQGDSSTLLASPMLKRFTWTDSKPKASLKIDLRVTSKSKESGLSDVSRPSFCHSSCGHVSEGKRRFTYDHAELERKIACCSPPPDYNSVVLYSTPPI
Chain of PLK3 (Q9H4B4 whole entry): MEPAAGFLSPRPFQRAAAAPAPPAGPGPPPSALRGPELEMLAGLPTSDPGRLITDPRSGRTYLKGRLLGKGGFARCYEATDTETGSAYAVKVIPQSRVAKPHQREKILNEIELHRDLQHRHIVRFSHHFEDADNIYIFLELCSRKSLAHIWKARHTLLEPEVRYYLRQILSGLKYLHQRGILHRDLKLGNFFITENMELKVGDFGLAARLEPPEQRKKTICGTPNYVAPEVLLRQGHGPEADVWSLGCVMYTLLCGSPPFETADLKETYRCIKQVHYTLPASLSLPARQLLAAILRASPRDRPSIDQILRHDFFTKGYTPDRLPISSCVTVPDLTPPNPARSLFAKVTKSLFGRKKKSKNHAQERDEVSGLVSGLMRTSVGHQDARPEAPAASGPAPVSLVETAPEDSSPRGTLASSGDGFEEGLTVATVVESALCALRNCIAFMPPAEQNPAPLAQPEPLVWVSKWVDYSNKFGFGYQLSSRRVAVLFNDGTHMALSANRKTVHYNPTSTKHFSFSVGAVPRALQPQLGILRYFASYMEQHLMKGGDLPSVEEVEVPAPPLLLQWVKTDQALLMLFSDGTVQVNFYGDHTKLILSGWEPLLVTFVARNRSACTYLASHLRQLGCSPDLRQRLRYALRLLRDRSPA
Chain of ZIPK/DAPK3 (O43293 whole entry): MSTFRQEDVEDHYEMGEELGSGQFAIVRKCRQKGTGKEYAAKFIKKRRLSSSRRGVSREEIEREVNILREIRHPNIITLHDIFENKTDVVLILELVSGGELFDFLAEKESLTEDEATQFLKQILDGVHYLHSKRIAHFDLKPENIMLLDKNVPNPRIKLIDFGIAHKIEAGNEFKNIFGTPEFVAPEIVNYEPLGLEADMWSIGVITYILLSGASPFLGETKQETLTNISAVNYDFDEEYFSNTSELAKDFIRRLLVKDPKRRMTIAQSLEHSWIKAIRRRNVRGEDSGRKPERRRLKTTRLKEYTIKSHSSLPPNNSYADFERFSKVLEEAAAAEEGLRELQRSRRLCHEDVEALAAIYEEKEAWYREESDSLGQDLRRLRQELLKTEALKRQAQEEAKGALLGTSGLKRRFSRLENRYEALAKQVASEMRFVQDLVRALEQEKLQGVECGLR
Chain of ALK (Q9UM73 19-1620): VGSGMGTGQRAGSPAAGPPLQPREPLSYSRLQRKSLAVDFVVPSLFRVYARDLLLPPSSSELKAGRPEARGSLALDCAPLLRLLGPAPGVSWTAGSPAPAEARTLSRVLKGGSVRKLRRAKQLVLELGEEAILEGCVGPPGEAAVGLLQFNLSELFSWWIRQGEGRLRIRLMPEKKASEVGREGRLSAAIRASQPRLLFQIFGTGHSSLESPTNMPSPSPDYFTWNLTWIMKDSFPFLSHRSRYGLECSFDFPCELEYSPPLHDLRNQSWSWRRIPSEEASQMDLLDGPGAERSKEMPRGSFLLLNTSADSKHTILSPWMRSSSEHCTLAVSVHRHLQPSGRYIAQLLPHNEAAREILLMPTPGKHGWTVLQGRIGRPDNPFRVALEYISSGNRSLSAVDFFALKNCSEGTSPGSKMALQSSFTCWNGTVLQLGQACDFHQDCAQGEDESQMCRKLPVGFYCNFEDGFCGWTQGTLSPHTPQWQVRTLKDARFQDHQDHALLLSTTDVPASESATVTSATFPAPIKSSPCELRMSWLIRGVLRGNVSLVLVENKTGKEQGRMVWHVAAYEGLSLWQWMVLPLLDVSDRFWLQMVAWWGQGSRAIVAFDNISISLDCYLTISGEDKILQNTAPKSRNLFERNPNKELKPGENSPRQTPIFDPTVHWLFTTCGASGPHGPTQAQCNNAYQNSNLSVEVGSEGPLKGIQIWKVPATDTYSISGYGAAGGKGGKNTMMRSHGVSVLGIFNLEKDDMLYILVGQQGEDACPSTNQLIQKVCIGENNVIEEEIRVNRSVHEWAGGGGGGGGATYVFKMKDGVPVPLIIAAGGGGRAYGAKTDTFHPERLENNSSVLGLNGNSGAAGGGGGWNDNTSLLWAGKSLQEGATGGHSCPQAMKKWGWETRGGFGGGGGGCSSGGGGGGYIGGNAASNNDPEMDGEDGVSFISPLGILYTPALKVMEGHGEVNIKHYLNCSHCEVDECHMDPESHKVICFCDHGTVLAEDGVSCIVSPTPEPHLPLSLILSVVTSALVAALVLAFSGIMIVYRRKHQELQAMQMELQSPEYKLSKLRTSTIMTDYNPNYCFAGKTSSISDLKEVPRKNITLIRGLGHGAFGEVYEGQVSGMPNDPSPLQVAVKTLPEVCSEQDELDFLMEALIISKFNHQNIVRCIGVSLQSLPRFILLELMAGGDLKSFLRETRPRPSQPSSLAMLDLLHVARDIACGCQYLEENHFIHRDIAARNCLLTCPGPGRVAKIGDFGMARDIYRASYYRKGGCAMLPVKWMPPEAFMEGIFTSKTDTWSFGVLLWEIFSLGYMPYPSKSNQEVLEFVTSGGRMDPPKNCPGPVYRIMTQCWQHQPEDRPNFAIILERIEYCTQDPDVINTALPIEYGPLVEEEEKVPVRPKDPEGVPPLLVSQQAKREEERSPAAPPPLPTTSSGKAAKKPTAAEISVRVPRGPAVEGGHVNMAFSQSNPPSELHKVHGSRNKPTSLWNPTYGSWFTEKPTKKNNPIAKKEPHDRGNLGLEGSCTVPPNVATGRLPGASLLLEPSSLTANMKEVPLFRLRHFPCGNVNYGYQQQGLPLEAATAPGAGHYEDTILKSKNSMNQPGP

For the compound `COc1cc(-c2cncc(-c3ccc(N4C[C@@H](C)N(C)[C@@H](C)C4)cc3)c2C)cc(F)c1C(N)=O` [Compound 26c, 2-Fluoro-6-methoxy-4-(4-methyl-5-(4-((3R,5S)-3,4,5-trimethylpiperazin-1-yl)phenyl)pyridin-3-yl)benzamide], the “% enzyme activity” value on ALK is listed as 96.51%; at CDK2/cyclin E2, 93.14%; on ULK1 it was 89.24%; at CDK9/cyclin K, 102.30%; on ZIPK/DAPK3, 102.34%; on FLT1/VEGFR1, 104.04%. Also, the “% enzyme activity” value at EPHB2 was determined as 97.40%. Further, the remaining activity at 1 µM at CDK9/cyclin K is 106%; on MKK6 it was 79.7%; at PKCa, 90.3%; on PLK3, 97.7%.
Turning to `COc1cc(-c2cncc(-c3ccc(N4CCN(C)CC4)cc3)c2C)cc(F)c1C(N)=O` [Compound 26a, 2-Fluoro-6-methoxy-4-(4-methyl-5-(4-(4-methylpiperazin-1-yl)phenyl)pyridin-3-yl)benzamide], the “% enzyme activity” value was determined as 99.31% on ALK; 104.96% at CDK2/cyclin E2; 83.53% on ULK1; 96.95% on CDK9/cyclin K; 103.31% at ZIPK/DAPK3; 105.29% on FLT1/VEGFR1. Also, the “% enzyme activity” value on EPHB2 was 92.89%. Also, the remaining activity at 1 µM was found to be 97.5% on CDK9/cyclin K, 84.4% on MKK6, 89.8% at PKCa and 95% on PLK3.
